Test results reported in patent US5543521A, “Compounds that modulate endothelin activity” (Immunopharmaceutics, Inc., priority 1994, dated 1996).
pEC50, pIC50: −log10 of the molar value. Values belong to the compound of their own block, whether it stands above or below them. Square brackets hold non-standard residues; d marks the D form. Ends that are not written are not given here. Peptide text beside a SMILES is read from it. d(aIle) = CC[C@H](C)[C@@H](N)C(=O)O

Tests used:
[1] = system: ETB receptors (cerebral tissue); details: cited from earlier work
[2] = system: porcine pulmonary arteries; details: cited from earlier work
endothelin-1 = details: cited from earlier work
vasoconstriction = details: cited from earlier work
[3] = system: ETA receptors (cardiovascular tissues); details: cited from earlier work
[4] = system: ETB receptors (non-cardiovascular tissues); details: kidney, adrenal gland, cerebellum; cited from earlier work
isolated vascular strips = details: read-out: EC50, contractile agent; cited from earlier work
human ETB receptor = test: Endothelin Inhibition Binding Test #2: membranes of COS7 cells expressing the human ETB receptor; details: 125I-ET-1, COS7 membranes expressing human ETB receptor
Method: COS7 cells were transfected with DNA encoding the ETB receptor, The resulting cells, which express the human ETB receptor, were grown to confluence in T-150 flasks. Membrane was prepared as described above. The binding assay was performed as described above using the membrane preparation diluted with binding buffer to a concentration of 1 μg/100 μl.
The COS7 cells, described above, that had been transfected with DNA encoding the ETB receptor and express the human ETB receptor were grown to confluence in T-175 flasks. Cells from multiple flasks were collected by scraping, pooled and centrifuged for 10 min. at 190×g. The cells were resuspended in phosphate buffered saline (PBS) containing 10 mM EDTA using a Tenbroeck homogenizer. The suspension was centrifuged at 4° C. at 57,800×g for 15 min, the pellet was resuspended in 5 ml of buffer A (5mM HEPES buffer, pH 7.4 containing aprotinin (100 KIU/ml)) and then frozen and thawed once. 5 ml of Buffer B (5 mM HEPES Buffer, pH 7.4 containing 10 mM MnCl2 and 0.001% deoxyribonuclease Type 1) was added, the suspension mixed by inversion and then incubated at 37° C. for 30 minutes. The mixture was centrifuged at 57,800×g as described above, the pellet washed twice with buffer A and then resuspended in buffer C (30 mM HEPES buffer, pH 7.4 containing aprotinin (100 KIU/ml) to give a final protein concentration of 2 mg/ml. […]

[5] = molecular target: T1, endothelin receptors (TE 671 cells) (Homo sapiens, UniProt P25101); test: Endothelin Binding Inhibition Binding Test #1: inhibition of 125I-ET-1 binding to TE 671 cell membranes; details: 125I-ET-1, TE 671 membranes, 4° C. for 16 hours, test compound 1 nM to 100 μM, triplicate
T1 construct: host or cells: TE 671 cells (membrane preparation)
T1 sequence (P25101 21-427): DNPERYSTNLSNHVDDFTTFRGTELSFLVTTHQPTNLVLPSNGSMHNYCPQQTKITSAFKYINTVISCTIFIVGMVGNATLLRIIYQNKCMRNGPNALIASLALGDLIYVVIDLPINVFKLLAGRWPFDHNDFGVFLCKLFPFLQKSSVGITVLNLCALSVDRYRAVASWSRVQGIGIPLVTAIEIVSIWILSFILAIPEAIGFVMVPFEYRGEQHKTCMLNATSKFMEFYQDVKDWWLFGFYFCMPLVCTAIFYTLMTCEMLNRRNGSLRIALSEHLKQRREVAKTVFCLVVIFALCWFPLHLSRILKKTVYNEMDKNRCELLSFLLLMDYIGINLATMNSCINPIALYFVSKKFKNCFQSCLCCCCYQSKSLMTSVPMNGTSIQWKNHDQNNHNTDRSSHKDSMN
Method: TE 671 cells (ATCC Accession No. HTB 139) were grown to confluence in T-175 flasks. Cells from multiple flasks were collected by scraping, pooled and centrifuged for 10 min at 190×g. The cells were resuspended in phosphate buffered saline (PBS) containing 10 mM EDTA using a Tenbroeck homogenizer. The suspension was centrifuged at 4° C. at 57,800×g for 15 min, the pellet was resuspended in 5 ml of buffer A (5 mM HEPES buffer, pH 7.4 containing aprotinin (100 KIU/ml)) and then frozen and thawed once. 5 ml of Buffer B (5 mM HEPES Buffer, pH 7.4 containing 10 mM MnCI2 and 0.001% deoxyribonuclease Type 1) was added, the suspension mixed by inversion and then incubated at 37° C. for 30 minutes. The mixture was centrifuged at 57,800×g as described above, the pellet washed twice with buffer A and then resuspended in buffer C (30 mM HEPES buffer, pH 7.4 containing aprotinin (100 KIU/ml) to give a final protein concentration of 2 mg/ml and stored at -70° C. until use.
The membrane suspension was diluted with binding buffer (30 mM HEPES buffer, pH 7.4 containing 150 mM NaCl, 5 mM MgCl2, 0.5% Bacitracin, 0.1% BSA) to a concentration of 6 μg/100 μl. […] The supernatant, containing unbound radioactivity, was decanted and the pellet counted on a Genesys multiwell gamma counter. The degree of inhibition of binding (D) was calculated according to the following equation: [formula] […]

[6] = system: cardiovascular receptors (cultured aortic smooth muscle cells); details: read-out: IC50, inhibition of 125 endothelin-1 binding; cited from earlier work
endothelinB receptor = details: endothelinB receptor-rich tissues; cited from earlier work
[7] = molecular target: cardiovascular receptors (aortic smooth muscle membrane); details: read-out: IC50, inhibition of 125 endothelin-1 binding; cited from earlier work
[8] = molecular target: cardiovascular receptors (ventricle membranes); details: read-out: IC50, inhibition of 125 endothelin-1 binding; cited from earlier work

Compound: [Ala^1,3,11,15 ]endothelin-1: endothelin-1 analog in which the four cys residues are replaced with Ala (ASASSLMDKEAVYFAHLDIIW; Endothelin-1; UniProt P05305 53-73, looked up, variant C1A C3A C11A C15A)
inhibition of 125 ET-1 binding [1]: inhibits ^125 ET-1 binding to cerebral tissue | relaxation of pre-contracted arteries [2]: dose-dependent relaxation of pre-contracted porcine pulmonary arteries

Compound: CC(C)C[C@@H]1NC(=O)[C@@H](C(C)C)NC(=O)[C@@H]2CCCN2C(=O)[C@@H](CC(=O)O)NC(=O)[C@@H](Cc2c[nH]c3ccccc23)NC1=O [BQ-123, c(D-Asp-Pro-D-Val-Leu-D-Trp)] (cyclo(L[dW][dD]P[dV]))
activity as endothelin-1 antagonists (endothelin-1): exhibit activity as endothelin-1 antagonists

Compound: (Trp^6,Leu^7) endothelin-1 (CSCSSWLDKECVYFCHLDIIW; ends and bridges not checked; cysteine pairing not given here; UniProt P20800 49-69, looked up) [endothelin-2, endothelin isopeptide]
vasoconstriction potency order (vasoconstriction): endothelin-2>endothelinol>endothelin-3

Compound: endothelin-1: potent twenty-one amino acid peptide vasoconstrictor
vasoconstriction potency order (vasoconstriction): endothelin-2>endothelinol>endothelin-3 | potency of inhibition of 125 endothelin-1 binding relative to endothelin-3 [3]: 40-700 | inhibition of 125 endothelin-1 binding [4]: inhibited to the same extent by endothelin-1 and endothelin-3 | pEC50 (isolated vascular strips): 9.40

pIC50 [5]: 4.65
Compound: O=C(O)C1CCC2C(=O)NC(Cc3c[nH]c4ccccc34)C(=O)N12 (stereo not shown) [3-(3-indolylmethyl)-1,4-diaza-2,5-dioxobicyclo[4.3.0]nonane-9-carboxylic acid]
activity in the second binding inhibition assay (human ETB receptor): no detectable activity

Compound: (Thr^2, Phe^4, Thr^5, Tyr^6, Lys^7, Tyr^14) endothelin-1 [endothelin-3]
vasoconstriction potency order (vasoconstriction): endothelin-2>endothelinol>endothelin-3 | inhibition of 125 endothelin-1 binding [4]: inhibited to the same extent by endothelin-1 and endothelin-3

Compound: CC[C@H](C)[C@H]1NC(=O)[C@H](C)NC(=O)[C@@H](CCC(=O)O)NC(=O)[C@@H](Cc2c[nH]c3ccccc23)NC(=O)[C@H](CC(C)C)NC1=O [BE-18257B, c(D-Glu-L-Ala-allo-D-Ile-L-Leu-D-Trp)] (cyclo(A[d(aIle)]L[dW][dE]))
pIC50 [6]: 6.30 | concentration up to which it fails to inhibit binding (endothelinB receptor): > 100 µM | pIC50 [7]: 5.85 | pIC50 [8]: 6.10
